Results published in PubChem BioAssay AID1963845 (Molecular Pharmacology Branch, DTP, NCI, 2024).

Tested on: 429239-143-T-J1-PDC complex spheroid viability
Assay: Anticancer human tumor 429239-143-T-J1-PDC patient-derived small cell lung carcinoma cell line growth inhibition [POLQ]
Details: for IC50: curve of first compound; for viability, T/C: stronger effect = lower value
Experimental: Multicellular complex tumor spheroid response to Polymerase (POL) inhibitors (novobiocin, ART-558, RP6685) in combination with a variety of drugs and investigational agents in selected tumor cell lines
The POL inhibitors (novobiocin, ART-558, and RP6685) were evaluated both individually and in combination with standard of care and investigational anticancer small molecules within a complex spheroid model of solid tumors. . Complex spheroids include a stromal component modeled by human endothelial cells (HUVEC) and fibroblasts modeled by human mesenchymal stem cells (MSCs). The concentration ranges selected for each drug and investigational agent were based upon clinically achievable concentrations if the clinical Cmax of the agent was known.
Compounds. The drugs and investigational agents: novobiocin (NSC847541), ART-558 (NSC835418), RP-6685 (NSC848927), peposertib (NSC802822), ceralasertib (NSC780249), elimusertib (NSC800525), camonsertib (NSC841442), AZD-1390 (NSC803789), olaparib (NSC753686), talazoparib (NSC767125), rucaparib (NSC756644), sotorasib (NSC818433), MRTX-1133 (NSC836407), SN-38 (NSC673596), topotecan (NSC609699), epotoside (NSC141540), doxorubicin (NSC123127), gemcitabine (NSC613327), 5-fluorouracil (NSC19893), paclitaxel (NSC125973), vemurafenib (NSC761431), MSA-2 (NSC828583), SN-011 (NSC837082), adavosertib (NSC754352), prexasertib (NSC758257), carboplatin (NSC241240) and oxaliplatin (NSC266046), were obtained from the National Cancer Institute (NCI) Developmental Therapeutics Program Chemical Repository (21). The FDA-approved anticancer drug set is available from the Developmental Therapeutics Program at https://dtp.cancer.gov/organization/dscb/obtaining/. […] The stock solutions were prepared in dimethyl sulfoxide (DMSO, Sigma-Aldrich, St. Louis, MO, cat. D2650), except for the platinum compounds which were prepared in saline (Quality Biological, Gaithersburg, MD, cat. 114-055-101), at 800-fold the tested concentration and stored at -70 degrees C prior to their use. All drugs and investigational agents were tested over a range starting from a high concentration at or near the clinical Cmax and decreasing in half-log increments. If the clinical Cmax for an agent had not been determined, the highest concentration tested was 10 microM, except for SN-38, which was tested at a high concentration of 1 microM.
Cell Culture. All cells were maintained in an incubator at 37 degrees C and 5% CO2 with 95% humidity. The PDC lines were cultured according to standard operating procedures established by the NCI PDMR (https://pdmr.cancer.gov). Table 3 of the manuscript, lists the cell lines along with the number of the three cell types plated to form the mct-spheroids and media for tumor cell growth. After thawing, all PDC lines, except 997537-175-T-J1-PDC and 415267-285-R-J2-PDC, were cultured in Matrigel-coated flasks prepared with a working solution of 1X Ham's F-12 nutrient mix, without supplementation (Thermo Fisher Scientific, cat. 11765054), 100 U/mL penicillin-streptomycin (Thermo Fisher Scientific, cat. 15140122), and 2.5% Matrigel (Corning Inc., Corning, NY, cat. 354248) for the first three passages. The two PDC lines 997537-175-T-J1-PDC and 415267-285-R-J2-PDC were cultured on uncoated flasks. The 857933-349-R-J2-PDC line was cultured in 6C/Colon 1B media containing advanced DMEM/F-12 (Thermo Fisher Scientific, cat. 12634028), 10 mM HEPES (Thermo Fisher Scientific, cat. 15630080), 1X GlutaMAX supplement (Thermo Fisher Scientific, cat. 35050061), 0.1 mg/mL primocin (InvivoGen, San Diego, CA, cat. ant-pm-2), 10% defined fetal bovine serum, heat inactivated (HyClone Laboratories Inc., Logan, UT, cat. SH30070.03HI), 50% L-WRN conditioned media (ATCC, cat. CRL-3276), 1.25 mM N-Acetyl-L-cysteine (Sigma-Aldrich, cat. A9165), 10 mM nicotinamide (Sigma-Aldrich, cat. N0636), 1X B-27 supplement (Thermo Fisher Scientific, cat. 17504044), 1X N-2 supplement (Thermo Fisher Scientific, cat. […]
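Note: luminescence signal used as surrogate measure of viable cells; spheroids exposed to compounds for seven days before readout.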
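Throughout, for viability, T/C: 100% = DMSO vehicle control viability as luminescence relative to vehicle.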

`CC(=O)O[C@H]1C(=O)[C@@]2(C)[C@H]([C@H](OC(=O)c3ccccc3)[C@]3(O)C[C@H](OC(=O)[C@H](O)[C@@H](NC(=O)c4ccccc4)c4ccccc4)C(C)=C1C3(C)C)[C@]1(OC(C)=O)CO[C@@H]1C[C@@H]2O` + Cc1cccc(N(C)C(=O)C2C(O)CCN2c2nc(C)cc(C(F)(F)F)c2C#N)c1 showed an IC50 (second compound 0.0316 µM) of 13.4 nM, an IC50 (second compound 0.1 µM) of 12.9 nM and an IC50 (second compound 0.316 µM) of 11.6 nM. For the same compound, the IC50 (second compound 1 µM) was 14.2 nM, the IC50 (second compound 3.16 µM) was 13.2 nM and the IC50 (second compound 10 µM) was 12.5 nM. It also gave a viability, T/C (second compound 0.0316 µM, first compound 0.00949 µM) of 63.2%, a viability, T/C (second compound 0.0316 µM, first compound 0.03 µM) of 14.9% and a viability, T/C (second compound 0.0316 µM, first compound 0.0949 µM) of 11.6%. The viability, T/C (second compound 0.0316 µM, first compound 0.3 µM) was 19.4%, the viability, T/C (second compound 0.0316 µM, first compound 0.949 µM) was 24.7% and the viability, T/C (second compound 0.0316 µM, first compound 3 µM) was 27.8%. The viability, T/C (second compound 0.1 µM, first compound 0.00949 µM) was 60.9%, the viability, T/C (second compound 0.1 µM, first compound 0.03 µM) was 15.6% and the viability, T/C (second compound 0.1 µM, first compound 0.0949 µM) was 18.6%. It also gave a viability, T/C (second compound 0.1 µM, first compound 0.3 µM) of 18.5%, a viability, T/C (second compound 0.1 µM, first compound 0.949 µM) of 23% and a viability, T/C (second compound 0.1 µM, first compound 3 µM) of 24.6%. The viability, T/C (second compound 0.316 µM, first compound 0.00949 µM) was 56.6%, the viability, T/C (second compound 0.316 µM, first compound 0.03 µM) was 17.8% and the viability, T/C (second compound 0.316 µM, first compound 0.0949 µM) was 12.7%. The viability, T/C (second compound 0.316 µM, first compound 0.3 µM) was 16.9%, the viability, T/C (second compound 0.316 µM, first compound 0.949 µM) was 18.8% and the viability, T/C (second compound 0.316 µM, first compound 3 µM) was 23.9%. It also gave a viability, T/C (second compound 1 µM, first compound 0.00949 µM) of 66.5%, a viability, T/C (second compound 1 µM, first compound 0.03 µM) of 14.6% and a viability, T/C (second compound 1 µM, first compound 0.0949 µM) of 17.8%. It also gave a viability, T/C (second compound 1 µM, first compound 0.3 µM) of 17.1%, a viability, T/C (second compound 1 µM, first compound 0.949 µM) of 22.7% and a viability, T/C (second compound 1 µM, first compound 3 µM) of 24.7%. For the same compound, the viability, T/C (second compound 3.16 µM, first compound 0.00949 µM) was 62.5%, the viability, T/C (second compound 3.16 µM, first compound 0.03 µM) was 17% and the viability, T/C (second compound 3.16 µM, first compound 0.0949 µM) was 14.6%. For the same compound, the viability, T/C (second compound 3.16 µM, first compound 0.3 µM) was 17.2%, the viability, T/C (second compound 3.16 µM, first compound 0.949 µM) was 21.7% and the viability, T/C (second compound 3.16 µM, first compound 3 µM) was 25.1%. It also gave a viability, T/C (second compound 10 µM, first compound 0.00949 µM) of 61.2%, a viability, T/C (second compound 10 µM, first compound 0.03 µM) of 12.5% and a viability, T/C (second compound 10 µM, first compound 0.0949 µM) of 17.8%. For the same compound, the viability, T/C (second compound 10 µM, first compound 0.3 µM) was 14.6%, the viability, T/C (second compound 10 µM, first compound 0.949 µM) was 18% and the viability, T/C (second compound 10 µM, first compound 3 µM) was 16%.
